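Briefly, cells in 96-well plates were exposed to five compound concentrations for 48 h, and endpoints were estimated by linear interpolation. GI50 is the concentration that inhibits growth by half.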 Active and inactive are the calls of the source. No stated cut-off is given here; in the data, active = GI50 up to about 1.1 µM and inactive = higher.
Key:
Experiment in all cases: NCI anticancer screen, dose series, 48 h
786-0 = test system: 786-0
A498 = test system: A498
A549 = test system: A549
ACHN = test system: ACHN
CCRF-CEM = test system: CCRF-CEM
COLO 205 = test system: COLO 205
DLD-1 = test system: DLD-1
DMS-114 = test system: DMS-114
EKVX = test system: EKVX
HCC 2998 = test system: HCC 2998
HCT-116 = test system: HCT-116
HCT-15 = test system: HCT-15
HL-60 = test system: HL-60
HOP-62 = test system: HOP-62
HT-29 = test system: HT-29
IGROV-1 = test system: IGROV-1
K562 = test system: K562
KM-20L2 = test system: KM-20L2
KM12 = test system: KM12
LOX IMVI = test system: LOX IMVI
LXFL 529 = test system: LXFL 529
M19-MEL = test system: M19-MEL
MOLT-4 = test system: MOLT-4
NCI-H226 = test system: NCI-H226
NCI-H23 = test system: NCI-H23
NCI-H460 = test system: NCI-H460
NCI-H522 = test system: NCI-H522
OVCAR-3 = test system: OVCAR-3
OVCAR-4 = test system: OVCAR-4
OVCAR-5 = test system: OVCAR-5
OVCAR-8 = test system: OVCAR-8
RPMI-8226 = test system: RPMI-8226
RXF 393 = test system: RXF 393
SF-268 = test system: SF-268
SF-295 = test system: SF-295
SK-MEL-28 = test system: SK-MEL-28
SK-MEL-5 = test system: SK-MEL-5
SN12C = test system: SN12C
SNB-19 = test system: SNB-19
SNB-78 = test system: SNB-78
SR = test system: SR
SW-620 = test system: SW-620
TK-10 = test system: TK-10
U-251 = test system: U-251
UACC-257 = test system: UACC-257
UO-31 = test system: UO-31
XF498 = test system: XF498
CAKI-1 = test system: CAKI-1
DMS-273 = test system: DMS-273
HOP-92 = test system: HOP-92
M14 = test system: M14
Malme-3M = test system: Malme-3M
SF-539 = test system: SF-539
SK-MEL-2 = test system: SK-MEL-2
SK-OV-3 = test system: SK-OV-3
SNB-75 = test system: SNB-75
UACC-62 = test system: UACC-62

## CC(C)=CCOc1ccc(-c2coc3cc4c(c(O)c3c2=O)C=CC(C)(C)O4)cc1
786-0
  GI50: 96.8 µM (inactive)
A498
  GI50: 14.9 µM (inactive)
A549
  GI50: 32.9 µM (inactive)
ACHN
  GI50: > 100 µM (inactive)
CCRF-CEM
  GI50: 43.5 µM (inactive)
COLO 205
  GI50: > 100 µM (inactive)
DLD-1
  GI50: 50.7 µM (inactive)
DMS-114
  GI50: 18.2 µM (inactive)
EKVX
  GI50: 5.22 µM (inactive)
HCC 2998
  GI50: 83.6 µM (inactive)
HCT-116
  GI50: 6.9 µM (inactive)
HCT-15
  GI50: 21 µM
HL-60
  GI50: > 100 µM (inactive)
HOP-62
  GI50: > 100 µM (inactive)
HT-29
  GI50: > 100 µM (inactive)
IGROV-1
  GI50: 21.1 µM (inactive)
K562
  GI50: 0.389 µM (active)
KM-20L2
  GI50: > 100 µM (inactive)
KM12
  GI50: > 100 µM (inactive)
LOX IMVI
  GI50: 1.7 µM (inactive)
LXFL 529
  GI50: 20.9 µM (inactive)
M19-MEL
  GI50: 47.9 µM (inactive)
MOLT-4
  GI50: > 100 µM (inactive)
NCI-H226
  GI50: > 100 µM (inactive)
NCI-H23
  GI50: 5.35 µM (inactive)
NCI-H460
  GI50: 63.2 µM (inactive)
NCI-H522
  GI50: 0.129 µM (active)
OVCAR-3
  GI50: 2.13 µM (inactive)
OVCAR-4
  GI50: 16.7 µM (inactive)
OVCAR-5
  GI50: > 100 µM (inactive)
OVCAR-8
  GI50: 50.7 µM (inactive)
RPMI-8226
  GI50: 27.3 µM (inactive)
RXF 393
  GI50: > 100 µM (inactive)
SF-268
  GI50: > 100 µM (inactive)
SF-295
  GI50: 49.5 µM (inactive)
SK-MEL-28
  GI50: 91.4 µM (inactive)
SK-MEL-5
  GI50: 0.207 µM (active)
SN12C
  GI50: > 100 µM (inactive)
SNB-19
  GI50: 56 µM (inactive)
SNB-78
  GI50: 59.3 µM (inactive)
SR
  GI50: > 100 µM (inactive)
SW-620
  GI50: > 100 µM (inactive)
TK-10
  GI50: > 100 µM (inactive)
U-251
  GI50: 38.8 µM (inactive)
UACC-257
  GI50: 14.3 µM (inactive)
UO-31
  GI50: > 100 µM (inactive)
XF498
  GI50: 15.9 µM (inactive)

## CCOc1ccc(NC(=O)c2c(N/N=C/c3ccc(OC)cc3)nc(=O)[nH]c2C)cc1
786-0
  GI50: 52.2 µM (inactive)
A498
  GI50: 18.4 µM (inactive)
ACHN
  GI50: 60 µM (inactive)
CAKI-1
  GI50: 44.5 µM (inactive)
CCRF-CEM
  GI50: > 100 µM (inactive)
COLO 205
  GI50: > 100 µM (inactive)
DLD-1
  GI50: 63.5 µM (inactive)
DMS-273
  GI50: 33.7 µM (inactive)
HCC 2998
  GI50: > 100 µM (inactive)
HCT-116
  GI50: 38.6 µM (inactive)
HCT-15
  GI50: > 100 µM
HL-60
  GI50: > 100 µM (inactive)
HOP-62
  GI50: 38.5 µM (inactive)
HOP-92
  GI50: 46.2 µM (inactive)
IGROV-1
  GI50: 51.5 µM (inactive)
K562
  GI50: > 100 µM (inactive)
LXFL 529
  GI50: > 100 µM (inactive)
M14
  GI50: 45.4 µM (inactive)
M19-MEL
  GI50: 85.5 µM (inactive)
MOLT-4
  GI50: > 100 µM (inactive)
Malme-3M
  GI50: 97.9 µM (inactive)
NCI-H226
  GI50: 41.6 µM (inactive)
NCI-H23
  GI50: 65.8 µM (inactive)
NCI-H460
  GI50: 56.4 µM (inactive)
NCI-H522
  GI50: 22.9 µM (inactive)
OVCAR-4
  GI50: 34.7 µM (inactive)
RPMI-8226
  GI50: > 100 µM (inactive)
SF-268
  GI50: > 100 µM (inactive)
SF-539
  GI50: 37 µM (inactive)
SK-MEL-28
  GI50: > 100 µM (inactive)
SK-MEL-2
  GI50: 84.5 µM (inactive)
SK-OV-3
  GI50: 33.6 µM (inactive)
SN12C
  GI50: 76 µM (inactive)
SNB-75
  GI50: 37.8 µM (inactive)
SNB-78
  GI50: 57.8 µM (inactive)
SR
  GI50: > 100 µM (inactive)
UACC-62
  GI50: > 100 µM (inactive)
UO-31
  GI50: 49.4 µM (inactive)
XF498
  GI50: > 100 µM (inactive)

## CC1CC2C(=O)NC(=O)C2c2[nH]c3ccccc3c21 (centres undefined)
786-0
  GI50: > 100 µM (inactive)
A549
  GI50: > 100 µM (inactive)
ACHN
  GI50: > 100 µM (inactive)
CAKI-1
  GI50: 42.8 µM (inactive)
CCRF-CEM
  GI50: > 100 µM (inactive)
COLO 205
  GI50: > 100 µM (inactive)
DLD-1
  GI50: > 100 µM (inactive)
DMS-114
  GI50: 96.2 µM (inactive)
DMS-273
  GI50: > 100 µM (inactive)
EKVX
  GI50: > 100 µM (inactive)
HCT-116
  GI50: > 100 µM (inactive)
HCT-15
  GI50: > 100 µM
HL-60
  GI50: 40.6 µM (inactive)
HOP-62
  GI50: 74 µM (inactive)
HOP-92
  GI50: 34.4 µM (inactive)
HT-29
  GI50: > 100 µM (inactive)
IGROV-1
  GI50: > 100 µM (inactive)
K562
  GI50: 91.2 µM (inactive)
KM12
  GI50: > 100 µM (inactive)
LOX IMVI
  GI50: > 100 µM (inactive)
LXFL 529
  GI50: > 100 µM (inactive)
M14
  GI50: > 100 µM (inactive)
M19-MEL
  GI50: > 100 µM (inactive)
MOLT-4
  GI50: > 100 µM (inactive)
Malme-3M
  GI50: > 100 µM (inactive)
NCI-H226
  GI50: 67.1 µM (inactive)
NCI-H23
  GI50: > 100 µM (inactive)
NCI-H460
  GI50: > 100 µM (inactive)
NCI-H522
  GI50: 51.4 µM (inactive)
OVCAR-3
  GI50: 96.2 µM (inactive)
OVCAR-4
  GI50: 92.7 µM (inactive)
OVCAR-5
  GI50: > 100 µM (inactive)
OVCAR-8
  GI50: > 100 µM (inactive)
RPMI-8226
  GI50: > 100 µM (inactive)
SF-268
  GI50: > 100 µM (inactive)
SF-295
  GI50: > 100 µM (inactive)
SF-539
  GI50: > 100 µM (inactive)
SK-MEL-2
  GI50: > 100 µM (inactive)
SK-MEL-5
  GI50: 70 µM (inactive)
SK-OV-3
  GI50: > 100 µM (inactive)
SN12C
  GI50: 78.7 µM (inactive)
SNB-75
  GI50: 1.53 µM (inactive)
SNB-78
  GI50: > 100 µM (inactive)
SR
  GI50: > 100 µM (inactive)
SW-620
  GI50: > 100 µM (inactive)
U-251
  GI50: > 100 µM (inactive)
UO-31
  GI50: 71.4 µM (inactive)
XF498
  GI50: > 100 µM (inactive)

— ChEMBL document CHEMBL1201862, “PubChem BioAssay data set” (2004)
